Key:
[1] = Inhibition over 48 hr of BAL strain HIV infrction of HeLa Magi cells expressing CCR5
[2] = as above; remark: listed apart in the source

Row | Compound | IC50 [1] | IC50 [2]
1 | CCCN(c1ccccn1)C1CCN(C[C@H]2CN(C(=O)c3ccccc3Cl)C[C@@H]2c2ccccc2)CC1 [(2-Chloro-phenyl)-{(3S,4S)-3-phenyl-4-[4-(propyl-pyridin-2-yl-amino)-piperidin-1-ylmethyl]-pyrrolidin-1-yl}-methanone] | 300 nM | 
2 | C=CCN(c1ccc(C(F)(F)F)cn1)C1CCN(C[C@H]2CN(C(=O)C3CCCCC3)C[C@@H]2c2ccccc2)CC1 [((3S,4S)-3-{4-[Allyl-(5-trifluoromethyl-pyridin-2-yl)-amino]-piperidin-1-ylmethyl}-4-phenyl-pyrrolidin-1-yl)-cyclohexyl-methanone] |  | 37 nM
3 | CCCN(c1ncccn1)C1CCN(C[C@H]2CN([C@@H](C(=O)O)C3CCCCC3)C[C@@H]2c2ccccc2)CC1 [(R)-2-cyclohexyl-2-((3S,4S)-3-phenyl-4-((4-(propyl(pyrimidin-2-yl)amino)piperidin-1-yl)methyl)pyrrolidin-1-yl)acetic acid] | 33 nM | 
4 | CCCN(c1nccc(OC)n1)C1CCN(C[C@H]2CN([C@H](CC3CCC3)C(=O)O)C[C@@H]2c2cccc(F)c2)CC1 [(R)-3-Cyclobutyl-2-((3S,4S)-3-(3-fluoro-phenyl)-4-{4-[(4-methoxy-pyrimidin-2-yl)-propyl-amino]-piperidin-1-ylmethyl}-pyrrolidin-1-yl)-propionic acid] |  | 100 nM
5 | CCCN(c1ncc(F)cn1)C1CCN(C[C@H]2CN([C@H](CC3CCC3)C(=O)O)C[C@@H]2c2cccc(F)c2)CC1 [(R)-3-Cyclobutyl-2-((3S,4S)-3-(3-fluoro-phenyl)-4-{4-[(5-fluoro-pyrimidin-2-yl)-propyl-amino]-piperidin-1-ylmethyl}-pyrrolidin-1-yl)-propionic acid] |  | 33 nM
6 | CCCN(c1nccc(C(F)(F)F)n1)C1CCN(C[C@H]2CN([C@H](CC3CCC3)C(=O)O)C[C@@H]2c2cccc(F)c2)CC1 [(R)-3-Cyclobutyl-2-((3S,4S)-3-(3-fluoro-phenyl)-4-{4-[propyl-(4-trifluoromethyl-pyrimidin-2-yl)-amino]-piperidin-1-ylmethyl}-pyrrolidin-1-yl)-propionic acid] |  | 450 nM
7 | CCCN(c1ncc(C(F)(F)F)cn1)C1CCN(C[C@H]2CN([C@H](CC3CCC3)C(=O)O)C[C@@H]2c2cccc(F)c2)CC1 [(R)-3-Cyclobutyl-2-((3S,4S)-3-(3-fluoro-phenyl)-4-{4-[propyl-(5-trifluoromethyl-pyrimidin-2-yl)-amino]-piperidin-1-ylmethyl}-pyrrolidin-1-yl)-propionic acid] |  | 100 nM
8 | O=C(O)[C@@H](CC1CCC1)N1C[C@H](CN2CCC(N(CC3CC3)c3ncccn3)CC2)[C@@H](c2cccc(F)c2)C1 [(R)-3-Cyclobutyl-2-[(3S,4S)-3-[4-(cyclopropylmethyl-pyrimidin-2-yl-amino)-piperidin-1-ylmethyl]-4-(3-fluoro-phenyl)-pyrrolidin-1-yl]-propionic acid] |  | 11 nM
9 | CCN(c1ncccn1)C1CCN(C[C@H]2CN([C@H](CC3CCC3)C(=O)O)C[C@@H]2c2cccc(F)c2)CC1 [(R)-3-Cyclobutyl-2-[(3S,4S)-3-[4-(ethyl-pyrimidin-2-yl-amino)-piperidin-1-ylmethyl]-4-(3-fluoro-phenyl)-pyrrolidin-1-yl]-propionic acid] |  | 100 nM
10 | CCCN(c1ccncn1)C1CCN(C[C@H]2CN([C@H](CC3CCC3)C(=O)O)C[C@@H]2c2cccc(F)c2)CC1 [(R)-3-Cyclobutyl-2-{(3S,4S)-3-(3-fluoro-phenyl)-4-[4-(propyl-pyrimidin-4-yl-amino)-piperidin-1-ylmethyl]-pyrrolidin-1-yl}-propionic acid] | 33 nM | 
11 | CCCN(c1cncnc1)C1CCN(C[C@H]2CN([C@H](CC3CCC3)C(=O)O)C[C@@H]2c2cccc(F)c2)CC1 [(R)-3-Cyclobutyl-2-{(3S,4S)-3-(3-fluoro-phenyl)-4-[4-(propyl-pyrimidin-5-yl-amino)-piperidin-1-ylmethyl]-pyrrolidin-1-yl}-propionic acid] |  | 11 nM
12 | CCCN(c1ncccn1)C1CCN(C[C@H]2CN([C@H](CC3CCC3)C(=O)O)C[C@@H]2c2cccc(F)c2)CC1 [(R)-3-cyclobutyl-2-((3S,4S)-3-(3-fluorophenyl)-4-((4-(propyl(pyrimidin-2-yl)amino)piperidin-1-yl)methyl)pyrrolidin-1-yl)propanoic acid] |  | 11 nM
13 | CCCN(c1ncccn1)C1CCN(C[C@H]2CN([C@@H](C(=O)O)C3CCCCC3)C[C@@H]2c2cccc(F)c2)CC1 [(R)-Cyclohexyl-{(3S,4S)-3-(3-fluoro-phenyl)-4-[4-(propyl-pyrimidin-2-yl-amino)-piperidin-1-ylmethyl]-pyrrolidin-1-yl}-acetic acid] |  | 33 nM
14 | CCCN(c1ccccn1)C1CCN(C[C@H]2CN([C@@H](C(=O)O)C3CCCCC3)C[C@@H]2c2ccccc2)CC1 [(R)-Cyclohexyl-{(3S,4S)-3-phenyl-4-[4-(propyl-pyridin-2-yl-amino)-piperidin-1-ylmethyl]-pyrrolidin-1-yl}-acetic acid] | 100 nM | 
15 | CCCN(c1cccnc1)C1CCN(C[C@H]2CN([C@@H](C(=O)O)C3CCCCC3)C[C@@H]2c2ccccc2)CC1 [(R)-Cyclohexyl-{(3S,4S)-3-phenyl-4-[4-(propyl-pyridin-3-yl-amino)-piperidin-1-ylmethyl]-pyrrolidin-1-yl}-acetic acid] |  | 33 nM
16 | O=C(C1CCCCC1)N1C[C@H](CN2CCC(N(CC3CC3)c3ccccn3)CC2)[C@@H](c2ccccc2)C1 [Cyclohexyl-{(3S,4S)-3-[4-(cyclopropylmethyl-pyridin-2-yl-amino)-piperidin-1-ylmethyl]-4-phenyl-pyrrolidin-1-yl}-methanone] | 33 nM | 
17 | CCCN(c1ccccn1)C1CCN(C[C@H]2CN(C(=O)C3CCC3)C[C@@H]2c2ccccc2)CC1 [cyclobutyl((3S,4S)-3-phenyl-4-((4-(propyl(pyridin-2-yl)amino)piperidin-1-yl)methyl)pyrrolidin-1-yl)methanone] | 300 nM | 
18 | CCCN(c1ccccn1)C1CCN(C[C@H]2CN(C(=O)C3CCCCC3)C[C@@H]2c2ccccc2)CC1 [cyclohexyl((3S,4S)-3-phenyl-4-((4-(propyl(pyridin-2-yl)amino)piperidin-1-yl)methyl)pyrrolidin-1-yl)methanone] | 100 nM | 
19 | CCCN(c1ccccn1)C1CCN(C[C@H]2CN(C(=O)N3CCCC3)C[C@@H]2c2ccccc2)CC1 [{(3S,4S)-3-Phenyl-4-[4-(propyl-pyridin-2-yl-amino)-piperidin-1-ylmethyl]-pyrrolidin-1-yl}-pyrrolidin-1-yl-methanone] | 300 nM | 
20 | C=CCN(c1ccccn1)C1CCN(C[C@H]2CN(C(=O)C3CCCCC3)C[C@@H]2c2ccccc2)CC1 [{(3S,4S)-3-[4-(Allyl-pyridin-2-yl-amino)-piperidin-1-ylmethyl]-4-phenyl-pyrrolidin-1-yl}-cyclohexyl-methanone] |  | 11 nM
21 | C=CCN(c1cccnc1)C1CCN(C[C@H]2CN(C(=O)C3CCCCC3)C[C@@H]2c2ccccc2)CC1 [{(3S,4S)-3-[4-(Allyl-pyridin-3-yl-amino)-piperidin-1-ylmethyl]-4-phenyl-pyrrolidin-1-yl}-cyclohexyl-methanone] |  | 12 nM
